According to US10568854B2, “Compositions and methods for treating kabuki syndrome and related disorders” (THE JOHNS HOPKINS UNIVERSITY, priority 2014, dated 2020):
Entries after “also recorded” stand apart in the source; their conditions may differ.

Tests used:
[1] = test system: genome-wide H3K4me3 in spleen cells; assay: ChIP-seq of H3K4me3 in spleen cells; assay type: in vivo, mouse; conditions: 10 mg/kg/day, Kmt2d^+/βGeo mice
Description: ChIP-seq: Spleens were dissected from eight mice, four from each kmt2d genotype (+/βGeo or +/+) where half of each genotype was treated with AR-42 and half with vehicle only. Spleens were minced and passed through a […] cell strainer to obtain single cell suspensions. 10 million cells were used for each ChIP-seq experiment following the native chromatin immunoprecipitation protocol, as previously described (Gilfillan et al. (2012) BMC Genomics 13:645), using a ChIP-grade antibody against H3K4me3 (9727, Cell Signaling Technology, Beverly, Mass.).
ChIP-seq data analysis: Sequencing was performed using a MiSeq system (Illumina, San Diego, Calif.). 4.8-9.6 million paired-end 26 by reads were obtained per sample (Table 2; nReads=number of reads, alignRate=fraction aligned to genome; FRIP=fraction of reads in peaks). Reads were aligned to the m. musculus genome, version mm10, using Bowtie 2 (Langmead and Salzberg (2012) Nat. Methods. 9: 357-9). Each sample was examined with regard to alignment rate as well as FRIP (fraction of reads in peaks), a measure of the ChIP efficiency (Table 2). […] For analysis, reads were merged into one meta-sample and peak calling was performed using MACS version 1.4.2 (Zhang et al. (2008) Genome Biol. 9: R137). […] This created a peak by sample matrix of read counts. […] Fold change and overall abundance was calculated as per edgeR. […]

Klf10 expression = assay: Real-time PCR of Kmt2d target gene Klf10 in spleen cells; assay type: in vivo, mouse; conditions: Kmt2d^+/βGeo mice
Description: Real time PCR: Real-time PCR was performed using Kmt2d-specific probes for exons 20 and 52 (Mm_02600438 and Mm_01717664, respectively) from TaqMan® Gene Expression Assays (Life Technologies, Carlsbad, Calif.). For a comparison of transfection efficiencies for indicator constructs in transient transfection studies, real-time PCR was performed using SYBR Green Real-Time PCR Master Mix (Life Technologies, Carlsbad, Calif.) and primers IND-F-([…]; SEQ ID NO: 5) and IND-R-([…]; SEQ ID NO: 6) that are specific for the H3K4 methylation indicator. For expression analysis for KMT2D target gene KLF10, real-time PCR was performed using Klf10-specific expression assay (Mm00449812_m1) from TaqMan® Gene Expression Assays (Life Technologies, Carlsbad, Calif.).

SMILES: CC(C)[C@H](C(=O)Nc1ccc(C(=O)NO)cc1)c1ccccc1 [AR-42, (S)—N-hydroxy-4-(3-methyl-2-phenylbutanamido)benzamide]
- genome-wide H3K4me3 (ChIP-seq) [1]: genome-wide increase in H3K4me3; also recorded: improved
- Klf10 expression in spleen cells (Klf10 expression): normalization of expression of Klf10; also recorded: normalized
